PubChem BioAssay (NCI)
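Following 48 hours of exposure in 96-well plates, responses at five concentrations were used to interpolate endpoints linearly. Definition used: TGI = concentration required for complete inhibition of growth.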

Tests used:
Test in all cases: growth of human tumour cells (NCI), 48 h
A498 renal = system: A498 renal
NCI-H226 lung = system: NCI-H226 lung
NCI-H23 lung = system: NCI-H23 lung
OVCAR-5 ovarian = system: OVCAR-5 ovarian
TK-10 renal = system: TK-10 renal
UO-31 renal = system: UO-31 renal
HOP-92 NSCLC = system: HOP-92 NSCLC
HS 578T breast = system: HS 578T breast
MDA-MB-231 breast = system: MDA-MB-231 breast
MDA-MB-435 = system: MDA-MB-435

SMILES	TGI (A498 renal) [µM]	TGI (NCI-H226 lung) [µM]	TGI (NCI-H23 lung) [µM]	TGI (OVCAR-5 ovarian) [µM]	TGI (TK-10 renal) [µM]	TGI (UO-31 renal) [µM]	TGI (HOP-92 NSCLC) [µM]	TGI (HS 578T breast) [µM]	TGI (MDA-MB-231 breast) [µM]	TGI (MDA-MB-435) [µM]
CC(C)(CN1CCCCC1)C(=O)CC(SCCN)c1ccc(Cl)cc1 (configuration not stated)	6.65	10.1	5.8	13.2	5.19	13.3				
C#C[C@]1(O)[C@@H](CO)O[C@@H](n2ccc(N)nc2=O)[C@@H]1O	0.54	3.66	1.78		2.65	0.395	12.7	> 40	> 100	0.219
CN(C)CC1CCCCCCCCCCCCC(CN(C)C)C1=O (configuration not stated)	33	23.9	32	30.6	27.9	26.8	26.3			
CC(=O)OCC1OC(OC(C)=O)C(Nc2ncc(-c3ccc(C)cc3)s2)C(OC(C)=O)C1OC(C)=O (configuration not stated)		50.4	31.9	> 100	32.9	27.9		69.5	49.8	30.3
O=C1CCCC2=C1CC1=C(CCCC1=O)N2c1ccc([N+](=O)[O-])cc1	> 100	> 100	> 100	> 100	> 100	> 100		> 100		
COc1ccc(NS(=O)c2c(C)cc(C)cc2C)cc1 (configuration not stated)		> 100	> 100	> 100	> 100	61.1		> 100	> 100	> 100
O=[N+]([O-])c1ccc(CN=C2NNS(=O)(=O)c3ccccc32)cc1	> 100	> 100		> 100		> 100	> 100			
COC1=CC(=O)c2c(cc3c(c2O)-c2c(OC)cc4cc5c(c(O)c4c2OC(=O)CC(C)(O)C3)C(=O)CC(C)(O)C5)C1=O (configuration not stated)	4.42	4.08	2.46	4.27	14.2	3.71	4.12			
CN1C(C)(C)CC(=O)C(Br)C1(C)C (configuration not stated)		> 100	> 100	> 100	> 100	> 100	> 100	> 100		> 100
O=C(Cc1ccccc1)NN1C(=O)C(Cl)C1c1cccc([N+](=O)[O-])c1 (configuration not stated)	> 100	> 90.1	> 92.2	> 100	> 100	> 100	30.5			
O=C1Oc2cc3c(c4cccc1c24)OCN(c1ccccc1)C3	> 100		> 100	> 100	> 100	> 100	> 100			
CC(=O)N=c1ccc2nc(N)nn(O)c-2c1	> 100	> 100	> 100	> 100	> 100	> 100		> 100	> 100	> 100
COC(=O)CC(CNC(=O)OCc1ccccc1)OCc1ccc(OC)cc1 (configuration not stated)	> 100	> 100	> 100	> 100	> 100	> 100	> 100		> 100	> 100
CN1c2ccccc2C(=O)NC12CCNCC2	> 100	> 100	> 100	> 100	> 100	> 100	> 100	40		> 100
O=C(CCN1CCC(CCO)CC1)Nc1ccc2c(c1)C(=O)c1ccc(NC(=O)CCN3CCC(CCO)CC3)cc1C2=O	92.8	76.5	> 100	> 100	> 100	> 100	> 100			
Cc1ccc(C(=O)N2CCCCC2)cc1N=NN(C)C	> 100	> 100	> 100	> 100	> 100	> 100				
O=C1CC(C(OCc2ccccc2)C(OCc2ccccc2)C(OCc2ccccc2)C(COCc2ccccc2)OCc2ccccc2)CC(=O)N1 (configuration not stated)	> 100		> 100	> 100	> 100	> 100	> 100	> 100		> 100
Cc1[nH]c2nc3c(ncn3COCCO)c(=O)n2c1C(c1ccccc1)(c1ccccc1)c1ccccc1	33.3		23.1	32.7	30.8	> 76.1	31.8	> 91.2	28.3	24.3
O=P(CCOc1ccccc1OCCP(=O)(c1ccccc1)c1ccc2c(c1)OCCOCCOCCOCCO2)(c1ccccc1)c1ccc2c(c1)OCCOCCOCCOCCO2 (configuration not stated)	> 100	> 100	> 100	> 100	> 100	> 100	> 100			
O=C1Nc2ccccc2/C1=C\c1c(-c2ccccc2)nc2n1CCS2	68.8		66.3	58.5	34.3	80.6	> 100	75.2	47	39.8
c1ccc2nn(C3CCCO3)nc2c1 (configuration not stated)	> 100	> 100	> 100	> 100	> 100			> 100	> 100	> 100
CC1CCC2CC1NC(=O)CCOCCC(=O)NC2(C)C (configuration not stated)			> 100	> 100	> 100	> 100	> 100		> 100	> 100
O=C1CCN2C(=N1)Sc1ccccc12		> 100	> 100	> 100	> 100		> 100	> 100	> 100	> 100
O=C(Cc1ccccc1)N/N=C(/c1nc2ccc([N+](=O)[O-])cc2[nH]c1=O)C(O)c1ccc(C(O)/C(=N/NC(=O)Cc2ccccc2)c2nc3ccc([N+](=O)[O-])cc3[nH]c2=O)cc1 (configuration not stated)	> 100	> 100	> 100	> 100	> 100		> 100			
CCCCCCCc1cscc1-c1cscc1Br	> 100	> 100	> 100	89.4	> 100	> 100			> 100	> 100
O=C1CCSc2nc(-c3ccc4c(c3)OCO4)nn21	> 10	> 10	> 10	> 10	> 10		> 10	> 10	> 10	> 10
